Patent publication US20240059671A1, “TYROSINE KINASE 2 (TYK2) DEGRADATION COMPOUNDS AND METHODS OF USE” (CULLGEN (SHANGHAI), INC., priority 2020, published 2024)

Biological target: TYK2 (Homo sapiens, UniProt P29597)
Test: TYK2 protein degradation in MOLT-4 cells by immunoblotting
Format: cell-based
Set-up: endogenous in cells; host or cells: MOLT-4
Conditions: MOLT-4 cells, 24 hours
Summary of the method: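 Percent TYK2 degradation came from densitometry of chemiluminescent immunoblots of RIPA lysates. Before lysis, MOLT-4 cells had been treated for 24 h with each compound at 0.5 or 5 μM.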

Chain of TYK2 (P29597 whole entry): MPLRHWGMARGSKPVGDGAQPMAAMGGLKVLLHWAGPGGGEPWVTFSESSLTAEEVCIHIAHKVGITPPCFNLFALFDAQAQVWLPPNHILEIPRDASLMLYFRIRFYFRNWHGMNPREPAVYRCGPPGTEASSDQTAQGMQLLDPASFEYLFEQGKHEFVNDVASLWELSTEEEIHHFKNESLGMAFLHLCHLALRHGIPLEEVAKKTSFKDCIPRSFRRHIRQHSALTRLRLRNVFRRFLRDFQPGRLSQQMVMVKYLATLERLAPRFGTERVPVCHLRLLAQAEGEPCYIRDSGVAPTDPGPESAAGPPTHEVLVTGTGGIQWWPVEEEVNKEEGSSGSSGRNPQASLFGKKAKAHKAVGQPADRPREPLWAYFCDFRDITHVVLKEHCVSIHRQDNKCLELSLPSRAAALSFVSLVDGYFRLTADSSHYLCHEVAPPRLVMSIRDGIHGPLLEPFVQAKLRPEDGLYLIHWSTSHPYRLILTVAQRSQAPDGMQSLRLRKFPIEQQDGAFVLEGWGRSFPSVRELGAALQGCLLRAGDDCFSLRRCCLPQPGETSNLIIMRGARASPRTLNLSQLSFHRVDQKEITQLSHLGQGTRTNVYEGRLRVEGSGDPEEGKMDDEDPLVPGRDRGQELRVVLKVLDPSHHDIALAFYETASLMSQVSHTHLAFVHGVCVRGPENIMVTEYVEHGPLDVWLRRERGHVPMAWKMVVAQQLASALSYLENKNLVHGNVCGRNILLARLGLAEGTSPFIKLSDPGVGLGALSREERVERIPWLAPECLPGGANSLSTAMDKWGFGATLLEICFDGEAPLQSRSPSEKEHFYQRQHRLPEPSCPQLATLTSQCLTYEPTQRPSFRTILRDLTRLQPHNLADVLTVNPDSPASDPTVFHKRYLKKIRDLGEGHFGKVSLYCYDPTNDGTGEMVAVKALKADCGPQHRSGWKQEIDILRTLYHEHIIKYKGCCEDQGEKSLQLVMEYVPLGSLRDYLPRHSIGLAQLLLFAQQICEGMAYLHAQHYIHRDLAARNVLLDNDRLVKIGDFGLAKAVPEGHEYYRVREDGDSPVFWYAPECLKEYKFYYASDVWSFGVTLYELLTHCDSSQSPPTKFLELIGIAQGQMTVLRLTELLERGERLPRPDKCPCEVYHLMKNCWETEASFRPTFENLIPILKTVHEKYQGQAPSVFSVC

| Structure (SMILES) | TYK2 Degradation (0.5 μM) | TYK2 Degradation (5 μM) | TYK2 Degradation (MOLT-4, 0.5 μM) (0.5 μM) | TYK2 Degradation (MOLT-4, 5 μM) (5 μM) |
| --- | --- | --- | --- | --- |
| CNC(=O)c1nnc(NC(=O)C2CC2)cc1Nc1cccc(-c2ncn(CCNC(=O)CCCCCCNc3cccc4c3C(=O)N(C3CCC(=O)NC3=O)C4=O)n2)c1OC (stereo not drawn) [CPD-006, 6-(Cyclopropanecarboxamido)-4-((3-(1-(2-(7-((2-(2,6-dioxopiperidin-3-yl)-1,3-dioxoisoindolin-4-yl)amino)heptanamido)ethyl)-1H-1,2,4-triazol-3-yl)-2-methoxyphenyl)amino)-N-methylpyridazine-3-carboxamide] | ≤20% |  |  |  |
| CNC(=O)c1nnc(NC(=O)C2CC2)cc1Nc1cccc(-c2ncn(CCNC(=O)CNc3cccc4c3C(=O)N(C3CCC(=O)NC3=O)C4=O)n2)c1OC (stereo not drawn) [CPD-001, 6-(Cyclopropanecarboxamido)-4-((3-(1-(2-(2-((2-(2,6-dioxopiperidin-3-yl)-1,3-dioxoisoindolin-4-yl)amino)acetamido)ethyl)-1H-1,2,4-triazol-3-yl)-2-methoxyphenyl)amino)-N-methylpyridazine-3-carboxamide] | ≤20% |  |  |  |
| CNC(=O)c1nnc(NC(=O)C2CC2)cc1Nc1cccc(-c2ncn(CCNC(=O)CCCCCCCNc3cccc4c3C(=O)N(C3CCC(=O)NC3=O)C4=O)n2)c1OC (stereo not drawn) [CPD-007, 6-(Cyclopropanecarboxamido)-4-((3-(1-(2-(8-((2-(2,6-dioxopiperidin-3-yl)-1,3-dioxoisoindolin-4-yl)amino)octanamido)ethyl)-1H-1,2,4-triazol-3-yl)-2-methoxyphenyl)amino)-N-methylpyridazine-3-carboxamide] | ≤20% |  |  |  |
| CNC(=O)c1nnc(NC(=O)CNC(=O)CCOCCOCCOCCOCCNc2ccc3c(c2)C(=O)N(C2CCC(=O)NC2=O)C3=O)cc1Nc1cccc(-c2ncn(C)n2)c1OC (stereo not drawn) [CPD-064, 6-(1-((2-(2,6-Dioxopiperidin-3-yl)-1,3-dioxoisoindolin-5-yl)amino)-15-oxo-3,6,9,12-tetraoxa-16-azaoctadecan-18-amido)-4-((2-methoxy-3-(1-methyl-1H-1,2,4-triazol-3-yl)phenyl)amino)-N-methylpyridazine-3-carboxamide] | ≤20% | ≤20% |  |  |
| CNC(=O)c1nnc(NC(=O)CNC(=O)CCOCCOCCNc2ccc3c(c2)C(=O)N(C2CCC(=O)NC2=O)C3=O)cc1Nc1cccc(-c2ncn(C)n2)c1OC (stereo not drawn) [CPD-062, 6-(2-(3-(2-(2-((2-(2,6-Dioxopiperidin-3-yl)-1,3-dioxoisoindolin-5-yl)amino)ethoxy)ethoxy)propanamido)acetamido)-4-((2-methoxy-3-(1-methyl-1H-1,2,4-triazol-3-yl)phenyl)amino)-N-methylpyridazine-3-carboxamide] | ≤20% | ≤20% |  |  |
| CNC(=O)c1nnc(NC(=O)CNC(=O)CCOCCOCCOCCOCCOCCNc2ccc3c(c2)C(=O)N(C2CCC(=O)NC2=O)C3=O)cc1Nc1cccc(-c2ncn(C)n2)c1OC (stereo not drawn) [CPD-065, 6-(1-((2-(2,6-Dioxopiperidin-3-yl)-1,3-dioxoisoindolin-5-yl)amino)-18-oxo-3,6,9,12,15-pentaoxa-19-azahenicosan-21-amido)-4-((2-methoxy-3-(1-methyl-1H-1,2,4-triazol-3-yl)phenyl)amino)-N-methylpyridazine-3-carboxamide] | ≤20% | ≤20% |  |  |
| CNC(=O)c1nnc(NC(=O)CNC(=O)CCNc2cccc3c2C(=O)N(C2CCC(=O)NC2=O)C3=O)cc1Nc1cccc(-c2ncn(C)n2)c1OC (stereo not drawn) [CPD-043, 6-(2-(3-((2-(2,6-Dioxopiperidin-3-yl)-1,3-dioxoisoindolin-4-yl)amino)propanamido)acetamido)-4-((2-methoxy-3-(1-methyl-1H-1,2,4-triazol-3-yl)phenyl)amino)-N-methylpyridazine-3-carboxamide] | ≤20% | ≤20% |  |  |
| CNC(=O)c1nnc(NC(=O)CNC(=O)CCOCCNc2cccc3c2C(=O)N(C2CCC(=O)NC2=O)C3=O)cc1Nc1cccc(-c2ncn(C)n2)c1OC (stereo not drawn) [CPD-049, 6-(2-(3-(2-((2-(2,6-Dioxopiperidin-3-yl)-1,3-dioxoisoindolin-4-yl)amino)ethoxy)propanamido)acetamido)-4-((2-methoxy-3-(1-methyl-1H-1,2,4-triazol-3-yl)phenyl)amino)-N-methylpyridazine-3-carboxamide] | ≤20% | ≤20% |  |  |
| CNC(=O)c1nnc(NC(=O)CNC(=O)CCOCCOCCOCCOCCNc2cccc3c2C(=O)N(C2CCC(=O)NC2=O)C3=O)cc1Nc1cccc(-c2ncn(C)n2)c1OC (stereo not drawn) [CPD-052, 6-(1-((2-(2,6-Dioxopiperidin-3-yl)-1,3-dioxoisoindolin-4-yl)amino)-15-oxo-3,6,9,12-tetraoxa-16-azaoctadecan-18-amido)-4-((2-methoxy-3-(1-methyl-1H-1,2,4-triazol-3-yl)phenyl)amino)-N-methylpyridazine-3-carboxamide] | ≤20% | ≤20% |  |  |

Other lines, results leading:

| TYK2 Degradation (0.5 μM) | TYK2 Degradation (5 μM) | TYK2 Degradation (MOLT-4, 0.5 μM) (0.5 μM) | TYK2 Degradation (MOLT-4, 5 μM) (5 μM) | Structure (SMILES) |
| --- | --- | --- | --- | --- |
| ≤20% | ≤20% |  |  | CNC(=O)c1nnc(NC(=O)C2CC2)cc1Nc1cccc(-c2ncn(CCNC(=O)CCOCCOCCOCCOCCC(=O)N[C@H](C(=O)N3C[C@H](O)C[C@H]3C(=O)NCc3ccc(-c4scnc4C)cc3)C(C)(C)C)n2)c1OC [CPD-072, N^1-(2-(3-(3-((6-(Cyclopropanecarboxamido)-3-(methylcarbamoyl)pyridazin-4-yl)amino)-2-methoxyphenyl)-1H-1,2,4-triazol-1-yl)ethyl)-N^16-((S)-1-((2S,4R)-4-hydroxy-2-((4-(4-methylthiazol-5-yl)benzyl)carbamoyl)pyrrolidin-1-yl)-3,3-dimethyl-1-oxobutan-2-yl)-4,7,10,13-tetraoxahexadecanediamide] |
| ≤20% |  |  |  | CNC(=O)c1nnc(NC(=O)C2CC2)cc1Nc1cccc(-c2ncn(CCNC(=O)CCOCCOCCOCCOCCOCCNc3cccc4c3C(=O)N(C3CCC(=O)NC3=O)C4=O)n2)c1OC (stereo not drawn) [CPD-012, 6-(Cyclopropanecarboxamido)-4-((3-(1-(1-((2-(2,6-dioxopiperidin-3-yl)-1,3-dioxoisoindolin-4-yl)amino)-18-oxo-3,6,9,12,15-pentaoxa-19-azahenicosan-2l-yl)-1H-1,2,4-triazol-3-yl)-2-methoxyphenyl)amino)-N-methylpyridazine-3-carboxamide] |
| ≤20% | ≤20% |  |  | CNC(=O)c1nnc(NC(=O)C2CC2)cc1Nc1cccc(-c2ncn(CCNC(=O)CCOCCOCCOCCC(=O)N[C@H](C(=O)N3C[C@H](O)C[C@H]3C(=O)NCc3ccc(-c4scnc4C)cc3)C(C)(C)C)n2)c1OC [CPD-071, 6-(Cyclopropanecarboxamido)-4-((3-(1-((5)-18-((2S,4R)-4-hydroxy-2-((4-(4-methylthiazol-5-yl)benzyl)carbamoyl)pyrrolidine-1-carbonyl)-19,19-dimethyl-4,16-dioxo-7,10,13-trioxa-3,17-diazaicosyl)-1H-1,2,4-triazol-3-yl)-2-methoxyphenyl)amino)-N-methylpyridazine-3-carboxamide] |
| ≤20% | ≤20% |  |  | CNC(=O)c1nnc(NC(=O)CNC(=O)COCC(=O)N[C@H](C(=O)N2C[C@H](O)C[C@H]2C(=O)NCc2ccc(-c3scnc3C)cc2)C(C)(C)C)cc1Nc1cccc(-c2ncn(C)n2)c1OC [CPD-025, 6-(2-(2-(2-(((S)-1-((2S,4R)-4-Hydroxy-2-((4-(4-methylthiazol-5-yl)benzyl)carbamoyl)pyrrolidin-1-yl)-3,3-dimethyl-1-oxobutan-2-yl)amino)-2-oxoethoxy)acetamido)acetamido)-4-((2-methoxy-3-(1-methyl-1H-1,2,4-triazol-3-yl)phenyl)amino)-N-methylpyridazine-3-carboxamide] |
| ≤20% | ≤20% |  |  | CNC(=O)c1nnc(NC(=O)CNC(=O)CCOCCOCCOCCNc2cccc3c2C(=O)N(C2CCC(=O)NC2=O)C3=O)cc1Nc1cccc(-c2ncn(C)n2)c1OC (stereo not drawn) [CPD-051, 6-(1-((2-(2,6-Dioxopiperidin-3-yl)-1,3-dioxoisoindolin-4-yl)amino)-12-oxo-3,6,9-trioxa-13-azapentadecan-15-amido)-4-((2-methoxy-3-(1-methyl-1H-1,2,4-triazol-3-yl)phenyl)amino)-N-methylpyridazine-3-carboxamide] |
| ≤20% |  |  |  | CNC(=O)c1nnc(NC(=O)C2CC2)cc1Nc1cccc(-c2ncn(CCNC(=O)CCOCCOCCOCCNc3ccc4c(c3)C(=O)N(C3CCC(=O)NC3=O)C4=O)n2)c1OC (stereo not drawn) [CPD-020, 6-(Cyclopropanecarboxamido)-4-((3-(1-(1-((2-(2,6-dioxopiperidin-3-yl)-1,3-dioxoisoindolin-5-yl)amino)-12-oxo-3,6,9-trioxa-13-azapentadecan-15-yl)-1H-1,2,4-triazol-3-yl)-2-methoxyphenyl)amino)-N-methylpyridazine-3-carboxamide] |
|  |  | C (C: ≤20% TYK2 degradation) | C (C: ≤20% TYK2 degradation) | CNC(=O)c1nnc(Nc2ccc(N3CCN(C(=O)CCCCC(=O)N[C@H](C(=O)N4C[C@H](O)C[C@H]4C(=O)NCc4ccc(-c5scnc5C)cc4)C(C)(C)C)CC3)cn2)cc1Nc1cccc(-c2ncn(C)n2)c1OC [CPD-098, 6-((5-(4-(6-(((S)-1-((2S,4R)-4-Hydroxy-2-((4-(4-methylthiazol-5-yl)benzyl)carbamoyl)pyrrolidin-1-yl)-3,3-dimethyl-1-oxobutan-2-yl)amino)-6-oxohexanoyl)piperazin-1-yl)pyridin-2-yl)amino)-4-((2-methoxy-3-(1-methyl-1H-1,2,4-triazol-3-yl)phenyl)amino)-N-methylpyridazine-3-carboxamide] |
